Laboratory results published in patent US11191293B2, “Nutritional composition and infant formula for promoting myelination of the brain” (NESTEC S.A., priority 2015, dated 2021).

What was measured:
[1] = system: brain myelination (myelin water fraction); assay: Cross-sectional correlation of infant formula nutrient content with brain myelination (mcDESPOT MRI myelin water fraction); assay type: in vivo, human; conditions: formula-fed children up to 5 years of age; brain regions named per nutrient
Procedure: MRI (Magnetic Resonance Imaging): MRI brain scans of infants and children between 0 and 5 years were acquired using a white matter imaging technique. This technique provides a quantitative measure, the Myelin Water Fraction (MWF), which is a surrogate marker of myelin content in the brain. When mapped as a function of time across early childhood, myelination trajectories can be generated.
Infant formula composition: six infant formulas fed to infants participating in a study were analyzed for their composition/level of myelin-relevant nutrients.
Infants included in this study were drawn from a larger longitudinal study of normal brain and behavioral development: the Brown University Assessment of Myelination and Behavior Across Maturation (BAMBAM). To focus on neurotypical development, children with known potential risk factors for learning, neurologic, or psychiatric disorders were specifically excluded during recruitment and enrollment. Thus, children with in utero alcohol or illicit substance exposure, premature (<37 weeks gestation) or multiple birth, fetal ultrasound abnormalities, complicated pregnancy (e.g., preeclampsia), APGAR scores <8, NICU admission, neurological disorder (e.g., head injury, epilepsy), psychiatric or developmental disorders in the infant, parents or siblings (including maternal depression requiring medication) were excluded. Ongoing screenings, such as the MCAT for autism, or CBCL for behavioral problems, were further used to remove enrolled children with clinically concerning behaviors or overt medical conditions (such as autism spectrum disorders).
A combination of retrospective and prospective data were acquired from parents via detailed medical histories and parental interview on the type of infant formula used, percentage of breastfeeding to formula feeding, and length of exclusive breastfeeding. This information was updated at each study visit, which occurred approximately every 6 months for children under 2 years, and yearly for older children. Using this information, children were categorized into one of 2 groups: #1. Exclusively formula-fed; and #2. Exclusively breastfed for at least 90 days (3 months). Children who were fed a combination of breastmilk and formula within 3 months were excluded from our analysis. Infants within the exclusively formula-fed group were further sub-divided based on parental reports of the main infant formula used throughout the first 3 months. Main formula was defined as that given 90% of the time or more (in the case were parents used an alternate brand during vacation, for example).
Using these criteria, 94 exclusively formula-fed infants and young children were selected into group #1. These included 13 children who received formula #2; 28 who received formula #5; 8 who received formula #3; 39 who received formula #4; 5 who received formula #1 and 1 who received formula #6. A sample of 52 exclusively breast-fed infants were also selected and matched to the over formula-fed group with regards to mean age, gestation duration, birth weight, male:female ratio, ethnicity ratio, maternal education, family size, and number of languages spoken in the home (in addition to English).
Each infant was scanned using the mcDESPOT (multicomponent Driven Equilibrium Single Pulse Observation of T1 and T2) white matter imaging technique Deoni et al. (Magn. Reson. Med. 2008, 60:1372-1387), which provides a quantitative measure of the myelin water fraction (MWF)—a measure of myelin content—at each point throughout the brain. All infants were scanned during natural (i.e. non-sedated) sleep using acoustically-muffled mcDESPOT imaging protocols. Total imaging times ranged from 19 minutes for the youngest toddlers to 24 minutes for the older 4 year-old children.

[2] = system: neural progenitor cell (NPCs); assay: Differentiation assay: quantification of neuronal and glial marker expression in monolayer NPC culture; assay type: cell-based, mouse; set-up: key: marker integrated density normalized to DAPI integrated density; conditions: 9 d culture; for astrocyte cell density: GFAP normalized to DAPI
Procedure: Generation of neural progenitor cell (NPCs) libraries: dissociation of E14 mouse neocortex E14 pup brains were harvested and placed in ice cold DPBS(1X)+10% Pen/Strep, then they were dissected using a dissecting microscope. From each pup, one brain hemisphere was placed in 2 ml of Neurobasal media/10% P/S/10X Hepes and another brain hemisphere was placed in another tube. The tissue from each tube was aseptically and manually dissociate into single cells, neurobasal complete medium was added and centrifuged at […] for 5 min. The tissue was then re-suspended in neurobasal complete media with GF and placed in a corning suspension culture dish 100 mm×20 mm (#430591). […] 24 well glass bottom plates (Mat Tek […]-1.0-13-F Case, glass bottom 24 well plates) were coated with poly-L-ornithin (Sigma P4957) and Fibronection (Sigma F1141) before use in the assay below. Cells were plated (10,000 cells per well) in Complete media with GF for 24 hours (500 ul per well). […] After 24 hours, it was ensured that cells were attached to the plate, then the medium was carefully removed. […] Note: medium contains no GF. […] The cells were culture for 9 d in media plus 2% Nu Serum, the medium was changed every 2 nd day. For fixation and subsequent immunohistochemical analysis the medium was removed, the cells were rinsed once with 1X PBS for 5 min, and fixed with 4% PFA in 1X PBS for 15 min at 4° C. The cells were then washed twice with 1X PBS for 5 min, left in 1X PBS, wrapped in foil and left overnight at 4C, or they were immediately primary antibody staining was carried out. PBS was removed and enough AB staining solution (1% Goat serum, 1xPBS, and 0.1% triton X) was added to cover the bottom, the block was kept at room temp for 1 hour. Primary antibody dilutions were made in appropriate amount of AB staining solution, 250 ul per well (the antibodies were only kept out on ice for a short time, mouse anti-MAP2 or TUJ1 1:500 (neuron marker), rabbit anti-GFAP(glial marker) 1:1000, chicken anti-Nestin CFP (EGFP antibody (progenitor cell marker)) 1:1000. AB staining solution was removed and a solution of primary antibodies was added to each chamber. The cells were wrapped in foil and kept overnight 4'C. The cells were then washed with 400 ul of AB staining solution for 5 min once to remove primary antibodies. Secondary antibody solutions were made (enough for 250 ul of each chamber) (Goat anti-mouse alexa 488 1:2000, anti-rabbit Cy3 (1:500), anti-chicken alexa 647 1:500, and 1:5000 Dapi). The cells were incubated at room temp for 1 hour in the dark and washed 2 time in AB staining solution for five mins. They were then kept at 4° C. or Imaged using a GE Cytell imager or LSM 710, Zeiss confocal microscope and analyze with ImageJ software(National Institutes of Health). Each marker expression was measured on collected images (integrated density measure in ImageJ) and normalized to DAPI fluorescence, marking all nuclei (integrated density measure). Octanoic Acid were labeled with neuronal beta-tubulin III (TuJ1), subsequent compounds were labeled with Microtubule-associated protein 2 (MAP2).

CCCCC/C=C\C/C=C\C/C=C\C/C=C\CCCC(=O)O [AA, arachidonic acid]
association of nutrient content of infant formula with myelination (myelin water fraction) over time in the brain [1]: an association with myelination (myelin water fraction) was observed

[P] [phosphorus]
association of nutrient content of infant formula with myelination (myelin water fraction) over time in the brain [1]: an association with myelination (myelin water fraction) was observed

iron
association of nutrient content of infant formula with myelination (myelin water fraction) over time in the brain [1]: an association with myelination (myelin water fraction) was observed

[Zn] [zinc]
association of nutrient content of infant formula with myelination (myelin water fraction) over time in the brain [1]: an association with myelination (myelin water fraction) was observed

CCCCCCCC(=O)O [Octanoic acid, Octanoic Acid]
astrocyte cell density ([2]; Octanoic acid high dose (Dose 3, 250 μM)): 7.9
Neuronal Cell density ([2]; Octanoic acid high dose (Dose 3, 250 μM), TuJ1 normalized to DAPI): 1.7
astrocyte cell density ([2]; Octanoic acid low dose (Dose 1, 10 μM)): 3.7
Neuronal Cell density ([2]; Octanoic acid low dose (Dose 1, 10 μM), TuJ1 normalized to DAPI): 1.2
astrocyte cell density ([2]; Octanoic acid med dose (Dose 2, 50 μM)): 6.1
Neuronal Cell density ([2]; Octanoic acid med dose (Dose 2, 50 μM), TuJ1 normalized to DAPI): 1.8

[Mg+2] [magnesium]
association of nutrient content of infant formula with myelination (myelin water fraction) over time in the brain [1]: an association with myelination (myelin water fraction) was observed

phosphatidylcholine
association of nutrient content of infant formula with myelination (myelin water fraction) over time in the brain [1]: an association with myelination (myelin water fraction) was observed

CCCCCCCCCCCCCCCCCC(=O)O [Stearic acid, Stearic Acid]
astrocyte cell density ([2]; Stearic acid high dose (Dose 3, 10 μM)): 0.85
Neuronal Cell density ([2]; Stearic acid high dose (Dose 3, 10 μM), MAP2 normalized to DAPI): 0.64
astrocyte cell density ([2]; Stearic acid low dose (Dose 1, 100 nM)): 0.68
Neuronal Cell density ([2]; Stearic acid low dose (Dose 1, 100 nM), MAP2 normalized to DAPI): 0.54
astrocyte cell density ([2]; Stearic acid med dose (Dose 2, 1 μm)): 0.81
Neuronal Cell density ([2]; Stearic acid med dose (Dose 2, 1 μm), MAP2 normalized to DAPI): 0.66

vitamin B12
association of nutrient content of infant formula with myelination (myelin water fraction) over time in the brain [1]: an association with myelination (myelin water fraction) was observed

CCCCCCCC/C=C\CCCCCCCCCCCCCC(=O)O [Nervonic acid, Nervonic Acid]
astrocyte cell density ([2]; Nervonic acid high dose (Dose 3, 1 μm)): 0.7028
Neuronal Cell density ([2]; Nervonic acid high dose (Dose 3, 1 μm), MAP2 normalized to DAPI): 0.5394
astrocyte cell density ([2]; Nervonic acid low dose (Dose 1, 10 nM)): 0.6218
Neuronal Cell density ([2]; Nervonic acid low dose (Dose 1, 10 nM), MAP2 normalized to DAPI): 0.4676
astrocyte cell density ([2]; Nervonic acid med dose (Dose 2, 100 nM)): 0.7215
Neuronal Cell density ([2]; Nervonic acid med dose (Dose 2, 100 nM), MAP2 normalized to DAPI): 0.5656

[Ca+2] [calcium]
association of nutrient content of infant formula with myelination (myelin water fraction) over time in the brain [1]: an association with myelination (myelin water fraction) was observed

phosphatidylinositol
association of nutrient content of infant formula with myelination (myelin water fraction) over time in the brain [1]: an association with myelination (myelin water fraction) was observed
